Among the data in US11319304B2, “Pyridine quinoline compounds as MGLUR4 allosteric potentiators, compositions, and methods of treating neurological dysfunction” (Vanderbilt University, priority 2017, dated 2022) are EC50 values, retold here.

The experiment addresses mGluR4 (Homo sapiens, UniProt Q14833). Description: mGlu4 PAM potentiation assay, CHO cells transfected with human mGluR4, Ca2+-sensitive dye fluorescence. In kind it is cell-based. Here is the method: The disclosed compounds and compositions can be evaluated for their ability to act as a potentiator of metabotropic glutamate receptor activity, in particular mGluR4 activity, by any suitable known methodology known in the art. For example, Chinese Hamster Ovary (CHO) cells transfected with human mGluR4 or HEK cells co-transfected with rat mGluR4 and the G-protein regulated Inwardly Rectifying Potassium channel (GIRK) were plated in clear bottom, assay plates for assay in a Hamamatsu FDSS Fluorometric Plate Reader. The cells were loaded with either a Ca2+-sensitive fluorescent dye or the thallium responsive dye and the plates were washed and placed into a suitable kinetic plate reader. For human mGluR4 assays, a fluorescence baseline was established for 3-5 seconds, the disclosed compounds were then added to the cells, and the response in cells was measured. Approximately two and a half minutes later, a concentration of mGluR4 orthosteric agonist (e.g. glutamate, L-AP4, or L-SOP) eliciting approximately 20% (EC20) of the maximal agonist response was added to the cells, and the response was measured. Two minutes later, a concentration of mGluR4 agonist (e.g. glutamate, L-AP4, or L-SOP) eliciting 80% (EC80) of the maximal agonist response was added to the cells, and the response was measured. For rat mGluR4/GIRK experiments, a baseline was established for approximately five seconds, disclosed compounds were added, and either an EC20 or EC80 concentration of agonist was added approximately two and one half minutes later. Potentiation or antagonism of the agonist response of mGluR4 by the disclosed compounds was observed as an increase or decrease in response to the EC20 concentration of agonist in the presence of compound compared to the response to agonist in the absence of compound. Similarly, potentiation or antagonism of the agonist response of mGluR4 by the disclosed Compounds was observed as an increase or decrease in response to the EC80 concentration of agonist in the presence of compound compared to the response to agonist in the absence of compound.
The above described assay operated in two modes. In the first mode, a range of concentrations of the disclosed compounds are added to cells, followed by a single fixed concentration of agonist. If the compound acts as a potentiatior, an EC50 value for potentiation and a maximum extent of potentiation by the compound at this concentration of agonist is determined by non-linear curve fitting. If the compound acts as an antagonist, an IC50 value is determined by non-linear curve fitting. In the second mode, several fixed concentrations of the disclosed compounds are added to various wells on a plate, followed by a range in concentrations of agonist for each concentration of disclosed compound. The EC50 values for the agonist at each concentration of compound are determined by non-linear curve fitting. A decrease in the EC50 value of the agonist with increasing concentrations of the sample compound (a leftward shift of the agonist concentration-response curve) is an indication of the degree of mGluR4 potentiation at a given concentration of the sample compound. A decrease in the maximal response of the agonist with increasing concentrations of the sample compounds, with or without a rightward shift in agonist potency, is an indication of the degree of antagonism at mGluR4. The second mode also indicates whether the sample compounds also affect the maximum response to mGluR4 to agonists.

mGluR4, sequence (Q14833 33-912 limits assumed): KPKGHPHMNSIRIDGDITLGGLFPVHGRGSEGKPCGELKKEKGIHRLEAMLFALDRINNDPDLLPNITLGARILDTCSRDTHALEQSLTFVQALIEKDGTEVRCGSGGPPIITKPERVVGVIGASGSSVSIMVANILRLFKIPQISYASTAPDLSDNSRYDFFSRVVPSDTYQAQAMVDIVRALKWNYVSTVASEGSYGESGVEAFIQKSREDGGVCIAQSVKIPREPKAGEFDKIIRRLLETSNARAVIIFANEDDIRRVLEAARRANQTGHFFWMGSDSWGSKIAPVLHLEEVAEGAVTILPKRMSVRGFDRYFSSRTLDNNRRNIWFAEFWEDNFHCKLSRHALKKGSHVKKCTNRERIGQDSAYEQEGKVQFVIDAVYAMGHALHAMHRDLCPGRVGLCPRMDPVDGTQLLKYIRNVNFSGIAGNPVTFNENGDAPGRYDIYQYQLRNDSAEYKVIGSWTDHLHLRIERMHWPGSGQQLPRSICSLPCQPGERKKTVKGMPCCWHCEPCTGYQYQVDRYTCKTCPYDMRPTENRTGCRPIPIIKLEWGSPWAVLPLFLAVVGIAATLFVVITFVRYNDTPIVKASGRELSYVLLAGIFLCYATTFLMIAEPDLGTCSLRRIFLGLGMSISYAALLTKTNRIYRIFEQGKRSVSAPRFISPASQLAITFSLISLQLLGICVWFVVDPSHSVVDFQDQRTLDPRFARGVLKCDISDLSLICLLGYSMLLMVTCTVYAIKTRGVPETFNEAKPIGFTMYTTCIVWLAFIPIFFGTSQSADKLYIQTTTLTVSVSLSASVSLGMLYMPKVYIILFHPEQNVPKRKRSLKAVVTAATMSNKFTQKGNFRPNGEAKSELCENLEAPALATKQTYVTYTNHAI

Regarding `CC1CC(COc2nccc3cc(NC(=O)c4ncccc4N)ccc23)CCO1` (stereo not drawn) [Compound 38], the EC50 turned out to be 135 nM.
Under `Nc1cccnc1C(=O)Nc1ccc2c(OC3CCOCC3)nccc2c1` [Compound 13] stands 290 nM.
Under `O=C(Nc1ccc2c(OCC3CCOC3)nccc2c1)c1cccc(Cl)n1` (stereo not drawn) [Compound 86] stands 619 nM.
Under `O=C(Nc1ccc2c(OCC3CCOCC3)nccc2c1)c1ccc(F)cn1` [Compound 105] stands 34.1 nM; under `CO[C@H](C)COc1nccc2cc(NC(=O)c3ccccn3)ccc12` [Compound 6], 166 nM.
In the case of `O=C(Nc1ccc2c(OCC3CCOC3)nccc2c1)c1nc(F)ccc1F` (stereo not drawn) [Compound 74], the EC50 came out at 800 nM.
As to `CC1(C)CC(Oc2nccc3cc(NC(=O)c4ncccc4F)cc(F)c23)CCO1` (stereo not drawn) [Compound 101], the EC50 was 120 nM.
Under `O=C(Nc1ccc2c(OC3CCOCC3)nccc2c1)c1ncccc1O` [Compound 14] stands 331 nM.
Consider `CC1(C)COCCC1Nc1nccc2cc(NC(=O)c3ncccc3N)ccc12` (stereo not drawn) [Compound 77], for which the half-maximal effective concentration (EC50) was determined as 922 nM.
For `O=C(Nc1ccc2c(OCC3CCOC3)nccc2c1)c1ncc(F)cc1F` (stereo not drawn) [Compound 73], the EC50 is 992 nM.
Under `CC1(COc2nccc3cc(NC(=O)c4ccccn4)ccc23)CCOCC1` [Compound 31] stands 246 nM; under `O=C(Nc1ccc2c(OCC3CCOC3)nccc2c1)c1ncccc1F` (stereo not drawn) [Compound 18], 262 nM; under `Nc1cccnc1C(=O)Nc1ccc2c(O[C@H]3CCOC3)nccc2c1` [Compound 10], 529 nM.
Under `Nc1cccnc1C(=O)Nc1cc(F)c2c(OCC3COCCO3)nccc2c1` (stereo not drawn) [Compound 91] stands 94 nM; under `O=C(Nc1ccc2c(OCC3CCOC3)nccc2c1)c1ncccc1O` (stereo not drawn) [Compound 17], 56.3 nM; under `CC1(COc2nccc3cc(NC(=O)c4ncccc4O)ccc23)CCOCC1` [Compound 33], 269 nM.
The result for `O=C(Nc1ccc2c(OCC3CCOCC3)ncc(F)c2c1)c1ccccn1` [Compound 65] reads 144 nM; that for `O=C(Nc1ccc2c(OCC3CCOCC3)nccc2c1)c1ccccn1` [Compound 1], 56 nM.
As for `O=C(Nc1cc(F)c2c(OCC3COCCO3)nccc2c1)c1ccccn1` (stereo not drawn) [Compound 90], the 50% effective concentration (EC50) worked out at 116 nM.
Regarding `O=C(Nc1ccc2c(OCC3CCOC3)nccc2c1)c1ccc(Cl)cn1` (stereo not drawn) [Compound 85], the EC50 amounted to 615 nM.
The result for `Nc1cccnc1C(=O)Nc1ccc2c(OCC3CCOC3)ncc(F)c2c1` (stereo not drawn) [Compound 63] reads 88.7 nM; that for `Nc1cccnc1C(=O)Nc1cnc2c(OCC3CCOCC3)nccc2c1` [Compound 121], 116 nM.
Turning to `Nc1cccnc1C(=O)Nc1ccc2c(Oc3ccncc3)nccc2c1` [Compound 112], the 50% effective concentration (EC50) was determined as 394 nM.
As for `O=C(Nc1ccc2c(OCC3CCOC3)nccc2c1)c1ccsn1` (stereo not drawn) [Compound 57], the EC50 was determined as 159 nM.
Under `O=C(Nc1ccc2c(OCC3COCCO3)nccc2c1)c1ccc(F)cn1` (stereo not drawn) [Compound 119] stands 285 nM; under `Nc1cccnc1C(=O)Nc1cc(F)c2c(OCC3CCOCC3)nccc2c1` [Compound 95], 106 nM.
With `CC1(C)CC(Oc2nccc3cc(NC(=O)c4ccccn4)cc(F)c23)CCO1` (stereo not drawn) [Compound 100], the concentration giving a half-maximal response (EC50) came to 70.8 nM.
As to `O=C(Nc1cc(F)c2c(OCC3CCOC3)nccc2c1)c1ccccn1` (stereo not drawn) [Compound 78], the EC50 turned out to be 39.3 nM.
The result for `Nc1cccnc1C(=O)Nc1ccc2c(OC3CCOCC3F)nccc2c1` (stereo not drawn) [Compound 41] reads 83.6 nM; that for `CC1(COc2nccc3cc(NC(=O)c4ncccc4N)ccc23)CCOCC1` [Compound 32], 325 nM; that for `O=C(Nc1cc(F)c2c(OCC3CCOCC3)nccc2c1)c1ccccn1` [Compound 94], 37.7 nM.
Under `O=C(Nc1ccc2c(OCC3CCOC3)nccc2c1)c1ccc(F)cn1` (stereo not drawn) [Compound 72] stands 211 nM.
Under `CC1(C)CC(COc2nccc3cc(NC(=O)c4ccccn4)ccc23)CO1` (stereo not drawn) [Compound 48] stands 452 nM.
